Series [1] in a line: Inotropic effect: contractile force of the heart muscle (left auricle). On the set-up: species or system guinea pig. The following applies: guinea pig, left auricle, Table 1; ratio inotropic ED25 / antiarrhythmic ED25; read-out: Therapeutic Breadth (III/II). The source says:
(§1) Evidence of the anti-arrhythmic effect of the new compounds is obtained in experimental animals by determination of the functional refractory period of the left auricle of the guinea pig with the aid of paired electrical stimulation employing the method of […]. Pharmacol. Exp. Therap. 148, 100 - 105 (1965). In this experimental arrangement, those anti-arrhythmic agents already known for use in therapy, of differing structure and of different points of attack in the human, all distinguish themselves by lengthening the functional refractory period. The method additionally permits a determination of the effects of the substances on the contractile force of the heart muscle [cf. Reuter and Heeg, Naunyn-Schmiedeberg's Arch. Pharmak. 268, 323 - 333 (1971) and Zettler and Strubelt, Naunyn-Schmiedeberg's Arch. Pharmak. 271, 335 - 345 (1971)]. The testing of the substances in each case involves up to thirty individual experiments. For the dosage effect relationships, linear regression functions were calculated [[…] Methoden, 3rd Edition, Birkhaeuser Verlag, Basel (1969)], wherein the maximum percentage deviations from the starting value over a period of up to 60 minutes after addition of the test substance to the bath fluid were employed. In following Table 1, column I, the optical isomers of one of the compounds of the invention and known anti-arrhythmic agents are named. Column II reports their anti-arrhythmic effect. Column III gives the inotropic effect, and column IV represents the therapeutic breadth of the compounds. The ED25 is the effective dose which lengthens the refractory period by 25 percent or reduces the contractile force by 25 percent.

Series [2] has as its system disturbances of the heart-beat rhythm. In words: Aconitine-induced disturbances of the heart rhythm, intravenous pretreatment. It is filed as in vivo, rats. The following applies: Rattus norvegicus, iv. The source says:
The anti-arrhythmic effect of the new compounds can also be determined in intact test animals by experimentally-induced disturbances of the heart rhythm. If rats are continually infused intravenously with aconitine, serious disturbances of the heart-beat rhythm, such as extrasystoles, ventricular tachycardia, and ventricular flutter, which disturbances eventually lead to the death of the test animals, are evident in an electrocardiogram. […] Bianchi et al., Arzneim. Forsch. 18, 845 - 850 (1968); Haas and Busch, Arzneim. Forsch. 18, 401 - 407 (1968); Haas et al., Arzneim. Forsch. 21, 1392 - 1399 (1971); Marmo, Naunyn-Schmiedeberg's Arch. Pharmak. 269, 231 - 247 (1971); Strubelt et al., Naunym-Schmiedeberg's Arch. Pharmak. 271, 346 - 360 ( 1971)].
The ED25 and ED50 are the intravenous doses, in mg/kg, which raise the administered aconitine doses, in comparison with the aconitine control, by 25 percent or 50 percent prior to the appearance of extrasystoles, ventricular tachycardia, and ventricular flutter.

The subject of series [3] is left auricle of the guinea pig. In words: Functional refractory period of the left auricle, paired electrical stimulation (method of Govier). To be noted: Table 1; effective dose which lengthens the refractory period by 25 percent. The source says:
Evidence of the anti-arrhythmic effect of the new compounds is obtained in experimental animals by determination of the functional refractory period of the left auricle of the guinea pig with the aid of paired electrical stimulation employing the method of W. C. Govier, J. Pharmacol. Exp. Therap. 148, 100 - 105 (1965). In this experimental arrangement, those anti-arrhythmic agents already known for use in therapy, of differing structure and of different points of attack in the human, all distinguish themselves by lengthening the functional refractory period. The method additionally permits a determination of the effects of the substances on the contractile force of the heart muscle [cf. Reuter and Heeg, Naunyn-Schmiedeberg's Arch. Pharmak. 268, 323 - 333 (1971) and Zettler and Strubelt, Naunyn-Schmiedeberg's Arch. Pharmak. 271, 335 - 345 (1971)].
The testing of the substances in each case involves up to thirty individual experiments. For the dosage effect relationships, linear regression functions were calculated [A. Lindner, Statistische Methoden, 3rd Edition, Birkhaeuser Verlag, Basel (1969)], wherein the maximum percentage deviations from the starting value over a period of up to 60 minutes after addition of the test substance to the bath fluid were employed.
In following Table 1, column I, the optical isomers of one of the compounds of the invention and known anti-arrhythmic agents are named. Column II reports their anti-arrhythmic effect. Column III gives the inotropic effect, and column IV represents the therapeutic breadth of the compounds. The ED25 is the effective dose which lengthens the refractory period by 25 percent or reduces the contractile force by 25 percent.
The dose in each case is 10^^-5 millimoles/liter.

Series [4] relates to left auricle of the guinea pig. In words: Inotropic effect: contractile force of the heart muscle (left auricle). The following applies: Table 1; effective dose which reduces the contractile force by 25 percent.
From the text: as §1

Each structure is given as a SMILES string. Read-outs that look alike come from different tables or passages of the source.

As a reminder, the ED50 is the midpoint of the dose-response relation. As to `COc1ccc(CC2(C)CN(C(c3ccccc3)c3ccccc3)CCN2C)cc1OC` (stereo not shown) [(D)-1-diphenylmethyl-3-methyl-3-(3,4-dimethoxybenzyl)-4-methyl-piperazine], in series [1], the selectivity ratio was determined as 1.5. The ED25 in series [2] (read-out: Extrasystoles ED25) is 0.94 mg/kg; in series [2] (read-out: Ventricular Flutter ED25), 0.84 mg/kg; in series [2] (read-out: Ventricular Tachycardia ED25), 0.94 mg/kg. The ED50 in series [2] (read-out: Extrasystoles ED50) came out at 1.21 mg/kg; in series [2] (read-out: Ventricular Flutter ED50) it was 1.23 mg/kg; in series [2] (read-out: Ventricular Tachycardia ED50), 1.26 mg/kg.

`c1ccc(CN(CC2=NCCN2)c2ccccc2)cc1` [Antazoline, reference compound]: the “Antiarrhythmic Effect (Lengthening of the Refractory Period) ED25” value in series [3] worked out at 0.164. In series [1], the selectivity ratio was 0.6. In series [4], the “Inotropic Effect (Decrease in Contractile Force) ED25” value is given as 0.094.
